Source: ChEMBL document CHEMBL5505954, “Design, synthesis and biological evaluation of the positional isomers of the galactose conjugates able to target hepatocellular carcinoma cells via ASGPR-mediated cellular uptake and cytotoxicity” (Eur J Med Chem, 2024)
Each block holds one compound with its values, some of them ahead of it. The source made the active and inactive calls. The calls are words filed in the database; no cut-off is given here.

Legend:
[1] = Drug uptake in human A549 cells assessed as increase in fluorescence intensity at 25 uM incubated for 4 hrs by DAPI staining based confocal laser scanning microscopic analysis; assay type: ADME, cell-based; conditions: a549, 4 h
[2] = Drug uptake in human HepG2 cells assessed as increase in fluorescence intensity at 25 uM incubated for 4 hrs by DAPI staining based confocal laser scanning microscopic analysis; assay type: ADME, cell-based; conditions: hepg2, 4 h
HepG2 [3] = assay: Competitive binding affinity to ASGPR in human HepG2 cells assessed as reduction in drug uptake pretreated for 0.5 hrs followed by 2-(-5-(-3,3-dimethyl-1-(6-oxo-6-((5-(((2R,3R,4S,5R)-3,4,5,6-tetrahydroxytetrahydro-2H-pyran-2-yl)methoxy)pentyl)amino)hexyl)-5-sulfoindolin-2-ylidene)penta-1,3-dien-1-yl …; assay type: cell-based; conditions: time 4.5 hrs
[4] = Potency index, ratio of test compound IC50 to doxorubicin IC50 for cytotoxicity against human HL7702 cells assessed as inhibition of cell growth incubated for 48 hrs by CCK-8 assay; assay type: toxicity, cell-based; conditions: HL7702 (L02) cells, read-out: Ratio IC50
Bel-7402 = assay: Cytotoxicity against human Bel-7402 cells assessed as inhibition of cell growth incubated for 48 hrs by CCK-8 assay; assay type: functional, cell-based; conditions: Bel-7402, 48 h
DU-145 = assay: Cytotoxicity against human DU-145 cells assessed as inhibition of cell growth incubated for 48 hrs by CCK-8 assay; assay type: functional, cell-based; conditions: DU-145, 48 h
HepG2 [5] = assay: Cytotoxicity against human HepG2 cells harboring siRNA mediated ASGPR knockdown assessed as inhibition of cell growth by measuring increase in IC50 at 0.125 to 16 uM incubated for 48 hrs by CCK-8 assay; assay type: functional, cell-based; conditions: dose 0.125-16 µM
[6] = Cytotoxicity against human HL7702 cells assessed as inhibition of cell growth incubated for 48 hrs by CCK-8 assay; assay type: toxicity, cell-based; conditions: HL7702 (L02) cells
HepG2 [7] = assay: Cytotoxicity against human HepG2 cells assessed as inhibition of cell growth incubated for 48 hrs by CCK-8 assay; assay type: functional, cell-based; conditions: HepG2, 48 h
A549 = assay: Cytotoxicity against human A549 cells assessed as inhibition of cell growth incubated for 48 hrs by CCK-8 assay; assay type: functional, cell-based; conditions: A549, 48 h
Huh-7 = assay: Cytotoxicity against human Huh-7 cells assessed as inhibition of cell growth incubated for 48 hrs by CCK-8 assay; assay type: functional, cell-based; conditions: Huh-7, 48 h
[8] = Drug uptake in human HepG2 cells overexpressing ASGPR assessed as increase in fluorescence intensity at 25 uM incubated for 4 hrs by DAPI staining based confocal laser scanning microscopic analysis; assay type: ADME, cell-based; conditions: hepg2, 4 h
[9] = Drug uptake in human HepG2 cells assessed as increase in fluorescence intensity incubated for 4 hrs by DAPI staining based confocal laser scanning microscopic analysis; assay type: ADME, cell-based; conditions: hepg2, 4 h, dose 0-50 µM
[10] = Drug uptake in human HepG2 cells assessed as increase in fluorescence intensity at 25 uM at 4 degreeC incubated for 4 hrs by DAPI staining based confocal laser scanning microscopic analysis; assay type: ADME, cell-based; conditions: hepg2, 4 h
[11] = Drug uptake in human HepG2 cells assessed as increase in fluorescence intensity at 25 uM by DAPI staining based confocal laser scanning microscopic analysis; assay type: ADME, cell-based; conditions: hepg2, 25 µM, TDE = time-dependent effect, time 0-4 hrs
[12] = Drug uptake in human DU-145 cells lacking ASGPR expression assessed as increase in fluorescence intensity at 25 uM incubated for 4 hrs by DAPI staining based confocal laser scanning microscopic analysis; assay type: ADME, cell-based; conditions: du-145, 4 h
[13] = Drug uptake in human A549 cells lacking ASGPR expression assessed as increase in fluorescence intensity at 25 uM incubated for 4 hrs by DAPI staining based confocal laser scanning microscopic analysis; assay type: ADME, cell-based; conditions: a549, 4 h
[14] = Drug uptake in human Huh-7 cells harboring low ASGPR expression assessed as increase in fluorescence intensity at 25 uM incubated for 4 hrs by DAPI staining based confocal laser scanning microscopic analysis; assay type: ADME, cell-based; conditions: huh-7, 4 h

SMILES: CC[N+]1=C(/C=C/C=C/C=C2/N(CCCCCC(=O)NCCCCCO[C@H]3C(O)O[C@H](OO)[C@H](O)[C@@H]3O)c3ccc(S(=O)(=O)O)cc3C2(C)C)C(C)(C)c2cc(S(=O)(=O)[O-])ccc21 (stereo not given in full)
- Drug uptake [1]: Active
- Drug uptake [2]: Active

SMILES: OC[C@H]1OC(O)[C@H](O)[C@@H](O)[C@H]1O (stereo not given in full)
- Activity (HepG2 [3]): Dose-Dependent Effect

- Drug uptake [1]: Active
- Drug uptake [2]: Active
SMILES: CC[N+]1=C(/C=C/C=C/C=C2/N(CCCCCC(=O)NCCCCCO[C@@H]3[C@H](O)[C@@H](O)C(O)O[C@@H]3CO)c3ccc(S(=O)(=O)O)cc3C2(C)C)C(C)(C)c2cc(S(=O)(=O)[O-])ccc21 (stereo not given in full)

SMILES: COc1cccc2c1C(=O)c1c(O)c3c(c(O)c1C2=O)C[C@@](O)(C(=O)CO)C[C@@H]3O[C@H]1C[C@H](NC(=O)CCCCCO[C@@H]2O[C@H](CO)[C@H](O)[C@H](O)[C@H]2O)[C@H](O)[C@H](C)O1
- selectivity ratio at 48 h [4]: > 12
- IC50 (Bel-7402): 4.67 µM
- IC50 (DU-145): 2.67 µM
- Activity (HepG2 [5]): Active
- IC50 at 48 h [6]: > 10 µM
- IC50 (HepG2 [7]): 6.71 µM
- IC50 (A549): > 10 µM
- IC50 (Huh-7): 1.29 µM

- Drug uptake [1]: Active
- Drug uptake [2]: Active
SMILES: CC[N+]1=C(/C=C/C=C/C=C2/N(CCCCCC(=O)NCCCCCO[C@H]3[C@@H](O)[C@@H](CO)OC(O)[C@@H]3O)c3ccc(S(=O)(=O)O)cc3C2(C)C)C(C)(C)c2cc(S(=O)(=O)[O-])ccc21 (stereo not given in full)

SMILES: COc1cccc2c1C(=O)c1c(O)c3c(c(O)c1C2=O)C[C@@](O)(C(=O)CO)C[C@@H]3O[C@H]1C[C@H](NC(=O)CCCCCOC[C@H]2OC(O)[C@H](O)[C@@H](O)[C@H]2O)[C@H](O)[C@H](C)O1 (stereo not given in full)
- selectivity ratio at 48 h [4]: > 12
- IC50 (Bel-7402): > 10 µM
- IC50 (DU-145): 6.74 µM
- IC50 at 48 h [6]: > 10 µM
- IC50 (HepG2 [7]): > 10 µM
- IC50 (A549): > 10 µM
- IC50 (Huh-7): > 10 µM

SMILES: COc1cccc2c1C(=O)c1c(O)c3c(c(O)c1C2=O)C[C@@](O)(C(=O)CO)C[C@@H]3O[C@H]1C[C@H](N)[C@H](O)[C@H](C)O1 [DOXORUBICIN]
- IC50 (Bel-7402): 0.43 µM
- IC50 (DU-145): < 0.1 µM
- IC50 (Huh-7): 0.12 µM

SMILES: COc1cccc2c1C(=O)c1c(O)c3c(c(O)c1C2=O)C[C@@](O)(C(=O)CO)C[C@@H]3O[C@H]1C[C@H](NC(=O)CCCCCO[C@H]2C(O)O[C@H](CO)[C@H](O)[C@@H]2O)[C@H](O)[C@H](C)O1 (stereo not given in full)
- selectivity ratio at 48 h [4]: > 12
- IC50 (Bel-7402): 3.11 µM
- IC50 (DU-145): 0.88 µM
- Activity (HepG2 [5]): Active
- IC50 at 48 h [6]: 9.68 µM
- IC50 (HepG2 [7]): 3.44 µM
- IC50 (A549): 9.35 µM
- IC50 (Huh-7): 1.14 µM

- Drug uptake [1]: Active
- Drug uptake [2]: Active
SMILES: CC[N+]1=C(/C=C/C=C/C=C2/N(CCCCCC(=O)NCCCCCOC3O[C@H](CO)[C@H](O)[C@H](O)[C@H]3O)c3ccc(S(=O)(=O)O)cc3C2(C)C)C(C)(C)c2cc(S(=O)(=O)[O-])ccc21 (stereo not given in full)

- Drug uptake [1]: Active
- Drug uptake [8]: Active
- Drug uptake [9]: Dose-Dependent Effect
- Drug uptake [10]: Not Active
- Drug uptake [11]: Tde
- Drug uptake [12]: Not Active
- Drug uptake [2]: Active
- Drug uptake [13]: Not Active
- Drug uptake [14]: Not Active
SMILES: CC[N+]1=C(/C=C/C=C/C=C2/N(CCCCCC(=O)NCCCCCOC[C@H]3OC(O)[C@H](O)[C@@H](O)[C@H]3O)c3ccc(S(=O)(=O)O)cc3C2(C)C)C(C)(C)c2cc(S(=O)(=O)[O-])ccc21 (stereo not given in full)

SMILES: CC(=O)N[C@H]1C(O)O[C@H](CO)[C@H](O)[C@@H]1O (stereo not given in full)
- Activity (HepG2 [3]): Dose-Dependent Effect
